In article PMC7180572, “5-Alkylamino-N-phenylpyrazine-2-carboxamides: Design, Preparation, and Antimycobacterial Evaluation” (Molecules, 2020):
Values after ≈ are worked out from the molar mass of the structure shown. Like-named read-outs stand apart in the source and are kept apart here.

How the values were obtained:
[1] = test system: Pseudomonas aeruginosa ATCC 27853, CCM 3955; assay: Antibacterial microdilution broth method (EUCAST); type: cell-based; settings: read-out: MIC PA
[2] = test system: Mycobacterium smegmatis DSM 43465 (ATCC 607); assay: Microdilution broth, modified Microplate Alamar Blue Assay, whole cell growth inhibition; type: cell-based; settings: Mycolicibacterium smegmatis, read-out: MIC Mycobacterium smegmatis
[3] = test system: HepG2 cells; assay: HepG2 cytotoxicity, CellTiter 96 (MTS) assay; type: cell-based, human; settings: for IC50: Homo sapiens, HepG2, 24 h, read-out: HepG2 IC50; for SI, selectivity index: IC50 (HepG2)/MIC against Mtb H37Ra (in µM)
[4] = test system: Staphylococcus aureus spp.aureus ATCC 29213, CCM 4223; assay: Antibacterial microdilution broth method (EUCAST); type: cell-based; settings: read-out: MIC SA
[5] = test system: Candida tropicalis ATCC 750, CCM 8264; assay: Antifungal microdilution broth method (EUCAST); type: cell-based; settings: read-out: MIC CT
[6] = test system: Klebsiella pneumoniae ATCC 10031, CCM 4415; assay: Antibacterial microdilution broth method (EUCAST)
[7] = test system: Acinetobacter baumanii ATCC 19606, DSM 30007; assay: Antibacterial microdilution broth method (EUCAST); type: cell-based; settings: Acinetobacter baumannii
[8] = test system: Trichophyton interdigitale ATCC 9533, CCM 8377; assay: Antifungal microdilution broth method (EUCAST); type: cell-based; settings: read-out: MIC TI
[9] = test system: Staphylococcus epidermidis ATCC 12228, CCM 4418; assay: Antibacterial microdilution broth method (EUCAST); type: cell-based; settings: read-out: MIC SE
[10] = test system: Aspergillus flavus CCM 8363; assay: Antifungal microdilution broth method (EUCAST); type: cell-based; settings: read-out: MIC AFla
[11] = test system: Candida krusei ATCC 6258, CCM 8271; assay: Antifungal microdilution broth method (EUCAST); type: cell-based; settings: Pichia kudriavzevii
[12] = test system: Escherichia coli ATCC 25922, CCM 3954; assay: Antibacterial microdilution broth method (EUCAST); type: cell-based; settings: read-out: MIC EC
[13] = test system: Mycobacterium aurum DSM 43999 (ATCC 23366); assay: Microdilution broth, modified Microplate Alamar Blue Assay, whole cell growth inhibition; type: cell-based; settings: Mycolicibacterium aurum, read-out: MIC Mycobacterium aurum
[14] = test system: Candida albicans ATCC 24433, CCM 8320; assay: Antifungal microdilution broth method (EUCAST); type: cell-based
[15] = test system: Candida parapsilosis ATCC 22019, CCM 8260; assay: Antifungal microdilution broth method (EUCAST); type: cell-based; settings: Lodderomyces parapsilosis
[16] = test system: Absidia corymbifera CCM 8077 (Lichtheimia corymbifera); assay: Antifungal microdilution broth method (EUCAST); type: cell-based; settings: read-out: MIC AC
[17] = test system: Aspergillus fumigatus ATCC 204305; assay: Antifungal microdilution broth method (EUCAST); type: cell-based; settings: read-out: MIC AF
[18] = test system: Mycobacterium tuberculosis H37Ra ITM-M006710 (ATCC 9431); assay: Microdilution broth, modified Microplate Alamar Blue Assay, whole cell growth inhibition; type: cell-based; settings: Mycobacterium tuberculosis; in vitro, Middlebrook 7H9 broth, resazurin; read-out: MIC Mtb H37Ra
[19] = test system: Enterococcus faecalis ATCC 29212, CCM 4224; assay: Antibacterial microdilution broth method (EUCAST); type: cell-based; settings: read-out: MIC EF
[20] = test system: Staphylococcus aureus methicillin resistant ATCC 43300, CCM 4750; assay: microbe, parasite or virus in culture; type: cell-based; settings: ATCC 43300 / CCM 4750 / MRSA, read-out: MIC MRSA

## CCCCCCCNc1cnc(C(=O)Nc2ccc(CC)cc2)cn1 [Compound 5e, N-(4-ethylphenyl)-5-(heptylamino)pyrazine-2-carboxamide]
[1]; 72 h
  MIC: > 500 µM
[1]; 120 h
  MIC: > 500 µM
[2]
  MIC: ≥ 500 µg/mL
[3]
  IC50: > 25 µM
[4]; 24 h
  MIC: > 500 µM
[4]; 48 h
  MIC: > 500 µM
[5]; 24 h
  MIC: > 125 µM
[5]; 48 h
  MIC: > 125 µM
[6]; 24h
  MIC KP: > 500 µM
[6]; 48h
  MIC KP: > 500 µM
[7]; 24h
  MIC: > 500 µM
[7]; 48h
  MIC: > 500 µM
[8]; 72 h
  MIC: > 125 µM
[8]; 120 h
  MIC: > 125 µM
[9]; 24 h
  MIC: > 500 µM
[9]; 48 h
  MIC: > 500 µM
[10]; CCM8363, 24 h
  MIC: > 125 µM
[10]; CCM8363, 48 h
  MIC: > 125 µM
[11]; 24 h, read-out: MIC CK
  MIC: > 125 µM
[11]; 48 h, read-out: MIC CK
  MIC: > 125 µM
[12]; 24 h
  MIC: > 500 µM
[12]; 48 h
  MIC: > 500 µM
[13]
  MIC: ≥ 500 µg/mL
[14]; 24 h, read-out: MIC CA
  MIC: > 125 µM
[14]; 48 h, read-out: MIC CA
  MIC: > 125 µM
[15]; 24 h, read-out: MIC CP
  MIC: > 125 µM
[15]; 48 h, read-out: MIC CP
  MIC: > 125 µM
[16]; CCM8077, 24 h
  MIC: > 125 µM
[16]; CCM8077, 48 h
  MIC: > 125 µM
[17]; ATCC204305, 24 h
  MIC: > 125 µM
[17]; ATCC204305, 48 h
  MIC: > 125 µM
[18]
  MIC: ≥ 500 µg/mL
[19]; 24 h
  MIC: > 500 µM
[19]; 48 h
  MIC: > 500 µM
[20]; 24 h
  MIC: > 500 µM
[20]; 48 h
  MIC: > 500 µM
other
  melting point: 131 to 132 °C

## CCCCCNc1cnc(C(=O)Nc2cccc(C(F)(F)F)c2)cn1 [Compound 1c, 5-(Pentylamino)-N-(3-(trifluoromethyl)phenyl)pyrazine-2-carboxamide]
[1]; 72 h
  MIC: > 500 µM
[1]; 120 h
  MIC: > 500 µM
[2]
  MIC: 1.56 µg/mL (≈ 4.43 µM)
[3]
  IC50: 18.9 µM
  SI, selectivity index: 2.13
[4]; 24 h
  MIC: > 500 µM
[4]; 48 h
  MIC: > 500 µM
[5]; 24 h
  MIC: > 125 µM
[5]; 48 h
  MIC: > 125 µM
[6]; 24h
  MIC KP: > 500 µM
[6]; 48h
  MIC KP: > 500 µM
[7]; 24h
  MIC: > 500 µM
[7]; 48h
  MIC: > 500 µM
[8]; 72 h
  MIC: > 125 µM
[8]; 120 h
  MIC: > 125 µM
[9]; 24 h
  MIC: > 500 µM
[9]; 48 h
  MIC: > 500 µM
[10]; CCM8363, 24 h
  MIC: > 125 µM
[10]; CCM8363, 48 h
  MIC: > 125 µM
[11]; 24 h, read-out: MIC CK
  MIC: 62.5 µM (≈ 22 µg/mL)
[11]; 48 h, read-out: MIC CK
  MIC: 62.5 µM (≈ 22 µg/mL)
[11]; read-out: MIC CK (Candida krusei)
  MIC: 62.5 µM (≈ 22 µg/mL)
[12]; 24 h
  MIC: > 500 µM
[12]; 48 h
  MIC: > 500 µM
[13]
  MIC: 3.13 µg/mL (≈ 8.88 µM)
[14]; 24 h, read-out: MIC CA
  MIC: > 125 µM
[14]; 48 h, read-out: MIC CA
  MIC: > 125 µM
[14]; read-out: MIC CA (Candida albicans)
  MIC: > 125 µM
[15]; 24 h, read-out: MIC CP
  MIC: 125 µM (≈ 44 µg/mL)
[15]; 48 h, read-out: MIC CP
  MIC: 125 µM (≈ 44 µg/mL)
[15]; read-out: MIC CP (Candida parapsilosis)
  MIC: 125 µM (≈ 44 µg/mL)
[16]; CCM8077, 24 h
  MIC: > 125 µM
[16]; CCM8077, 48 h
  MIC: > 125 µM
[17]; ATCC204305, 24 h
  MIC: > 125 µM
[17]; ATCC204305, 48 h
  MIC: > 125 µM
[18]
  MIC: 3.13 µg/mL (≈ 8.88 µM)
[19]; 24 h
  MIC: > 500 µM
[19]; 48 h
  MIC: > 500 µM
[20]; 24 h
  MIC: > 500 µM
[20]; 48 h
  MIC: > 500 µM
other
  melting point: 128 to 129 °C

## CCCNc1cnc(C(=O)Nc2ccc(O)cc2)cn1 [Compound 3a, N-(4-hydroxyphenyl)-5-(propylamino)pyrazine-2-carboxamide]
[1]; 72 h
  MIC: > 500 µM
[1]; 120 h
  MIC: > 500 µM
[2]
  MIC: ≥ 500 µg/mL
[3]
  IC50: 410 µM
  SI, selectivity index: 7.18
[4]; 24 h
  MIC: > 500 µM
[4]; 48 h
  MIC: > 500 µM
[5]; 24 h
  MIC: > 500 µM
[5]; 48 h
  MIC: > 500 µM
[6]; 24h
  MIC KP: > 500 µM
[6]; 48h
  MIC KP: > 500 µM
[7]; 24h
  MIC: > 500 µM
[7]; 48h
  MIC: > 500 µM
[8]; 72 h
  MIC: > 500 µM
[8]; 120 h
  MIC: > 500 µM
[9]; 24 h
  MIC: > 500 µM
[9]; 48 h
  MIC: > 500 µM
[10]; CCM8363, 24 h
  MIC: > 500 µM
[10]; CCM8363, 48 h
  MIC: > 500 µM
[11]; 24 h, read-out: MIC CK
  MIC: > 500 µM
[11]; 48 h, read-out: MIC CK
  MIC: > 500 µM
[12]; 24 h
  MIC: > 500 µM
[12]; 48 h
  MIC: > 500 µM
[13]
  MIC: ≥ 500 µg/mL
[14]; 24 h, read-out: MIC CA
  MIC: > 500 µM
[14]; 48 h, read-out: MIC CA
  MIC: > 500 µM
[15]; 24 h, read-out: MIC CP
  MIC: > 500 µM
[15]; 48 h, read-out: MIC CP
  MIC: > 500 µM
[16]; CCM8077, 24 h
  MIC: > 500 µM
[16]; CCM8077, 48 h
  MIC: > 500 µM
[17]; ATCC204305, 24 h
  MIC: > 500 µM
[17]; ATCC204305, 48 h
  MIC: > 500 µM
[18]
  MIC: 15.6 µg/mL (≈ 57.4 µM)
[19]; 24 h
  MIC: > 500 µM
[19]; 48 h
  MIC: > 500 µM
[20]; 24 h
  MIC: > 500 µM
[20]; 48 h
  MIC: > 500 µM
other
  melting point: 209.3 to 215.6 °C
